According to paper PMC5548701, “Selective targeting of melanoma using N-(2-diethylaminoethyl) 4-[^18F]fluoroethoxy benzamide (4-[^18F]FEBZA): a novel PET imaging probe” (EJNMMI Research, 2017):
Where “and” joins values, the source holds several entries; their conditions need not be identical. Equal values may be shown once.

How the values were obtained:
[1] = test system: C-32 amelanotic melanoma tumor xenografts; test: biodistribution in mice bearing C-32 tumor xenografts; format: in vivo, athymic nu/nu mice; details: for Adrenals %IA/g tissue (mean ± SD) / Blood %IA/g tissue (mean ± SD) / Bone %IA/g tissue (mean ± SD) / Brain %IA/g tissue (mean ± SD) / Heart %IA/g tissue (mean ± SD) / Kidneys %IA/g tissue (mean ± SD) / Liver %IA/g tissue (mean ± SD) / Lung %IA/g tissue (mean ± SD) / Muscles %IA/g tissue (mean ± SD) / Pancreas %IA/g tissue (mean ± SD) / Sm. Intestine %IA/g tissue (mean ± SD) / Spleen %IA/g tissue (mean ± SD): C-32 tumor mice; for Tumor %IA/g tissue (mean ± SD): C-32 tumor
Experimental: (§1) B16F1 melanoma cells, HT-29 human colorectal adenocarcinoma cells, and C-32 amelanotic melanoma cells were purchased from the American Type Culture Collection (ATCC, Rockville, MD). B16F1 murine melanotic melanoma cells were maintained in Dulbecco’s modified Eagles medium supplemented with 10% fetal calf-serum, 2 mM L-glutamine, and 1 mM pyruvate. HT-29 and C-32 cells were maintained in RPMI supplemented with 10% fetal calf serum and 2 mM L-glutamine. C57BL/6 and athymic nu/nu mice were purchased from Charles River Laboratories (Charles River Laboratories, Boston, MA). All animal studies were performed using an IACUC-approved protocol, and the work was performed under the guidelines established by Wake Forest University. The cells were grown to confluency, harvested, washed with phosphate-buffered saline and then were suspended in a 1:1 mixture of phosphate-buffered saline and Matrigel (BD Life Sciences, San Jose, CA) at a concentration of 5 × 10^6 cells/mL. For subcutaneous tumor xenografts, […] in the right flank with 100 μL of a suspension of B16F1 cells, and female athymic nu/nu mice were injected in the right flank with 100 μL of HT-29 cells or C-32 cells.
(§2) The biodistribution studies were performed in mice bearing B16F1 (1 h n = 5; 2 h n = 6), C-32 (1 h n = 3; 2 h n = 3), and HT-29 (1 h n = 3; 2 h n = 3) tumor xenografts. The tumor-bearing mice were injected with ~40 μCi of 4-[^18F]FEBZA. A separate group of normal C57BL/6 mice with no tumor implants (1 h n = 3; 2 h n = 3) was also injected with ~40 μCi of 4-[^18F]FEBZA to study the distribution characteristics of 4-[^18F]FEBZA in the absence of tumors. At 1 h and 2 h post-injection, the mice were euthanized, and the tissues of interest were removed, rinsed with PBS, weighed, and counted for radioactivity contents using a γ-counter.

[2] = test system: B16F1 melanoma tumor xenografts; test: biodistribution in mice bearing B16F1 tumor xenografts; format: in vivo, C57BL/6 mice; details: for tumor-to-brain tissue ratio: B16F1 group
Experimental: as §1, §2

[3] = B16F1 tumor mice, 1 h post-injection
[4] = B16F1 tumor mice, 2 h post-injection

tumor-to-muscle ratio ([1]; C-32 mice group, 2 h): 2.43 ± 0.14
Adrenals %IA/g tissue (mean ± SD) ([1]; 1 h post-injection): 1.26 ± 0.39 %IA/g tissue
Blood %IA/g tissue (mean ± SD) ([1]; 1 h post-injection): 3.22 ± 0.64 %IA/g tissue
Bone %IA/g tissue (mean ± SD) ([1]; 1 h post-injection): 3.47 ± 0.78 %IA/g tissue
Brain %IA/g tissue (mean ± SD) ([1]; 1 h post-injection): 1.87 ± 0.21 %IA/g tissue
Heart %IA/g tissue (mean ± SD) ([1]; 1 h post-injection): 2.52 ± 0.15 %IA/g tissue
Kidneys %IA/g tissue (mean ± SD) ([1]; 1 h post-injection): 2.85 ± 0.37 %IA/g tissue
Liver %IA/g tissue (mean ± SD) ([1]; 1 h post-injection): 3.11 ± 0.49 %IA/g tissue
Lung %IA/g tissue (mean ± SD) ([1]; 1 h post-injection): 1.94 ± 0.67 %IA/g tissue
Muscles %IA/g tissue (mean ± SD) ([1]; 1 h post-injection): 2.35 ± 1.06 %IA/g tissue
Pancreas %IA/g tissue (mean ± SD) ([1]; 1 h post-injection): 2.49 ± 0.42 %IA/g tissue
Sm. Intestine %IA/g tissue (mean ± SD) ([1]; 1 h post-injection): 2.23 ± 0.21 %IA/g tissue
Spleen %IA/g tissue (mean ± SD) ([1]; 1 h post-injection): 1.96 ± 0.38 %IA/g tissue
Adrenals %IA/g tissue (mean ± SD) ([1]; 2 h post-injection): 0.77 ± 0.18 %IA/g tissue
Blood %IA/g tissue (mean ± SD) ([1]; 2 h post-injection): 2.40 ± 0.30 %IA/g tissue
Bone %IA/g tissue (mean ± SD) ([1]; 2 h post-injection): 5.09 ± 0.72 %IA/g tissue
Brain %IA/g tissue (mean ± SD) ([1]; 2 h post-injection): 1.36 ± 0.17 %IA/g tissue
Heart %IA/g tissue (mean ± SD) ([1]; 2 h post-injection): 1.75 ± 0.35 %IA/g tissue
Kidneys %IA/g tissue (mean ± SD) ([1]; 2 h post-injection): 1.84 ± 0.12 %IA/g tissue
Liver %IA/g tissue (mean ± SD) ([1]; 2 h post-injection): 1.99 ± 0.12 %IA/g tissue
Lung %IA/g tissue (mean ± SD) ([1]; 2 h post-injection): 1.33 ± 0.35 %IA/g tissue
Muscles %IA/g tissue (mean ± SD) ([1]; 2 h post-injection): 1.05 ± 0.14 %IA/g tissue
Pancreas %IA/g tissue (mean ± SD) ([1]; 2 h post-injection): 1.40 ± 0.10 %IA/g tissue
Sm. Intestine %IA/g tissue (mean ± SD) ([1]; 2 h post-injection): 1.33 ± 0.06 %IA/g tissue
Spleen %IA/g tissue (mean ± SD) ([1]; 2 h post-injection): 1.22 ± 0.08 %IA/g tissue
Tumor %IA/g tissue (mean ± SD) ([1]; 1 h post-injection): 3.91 ± 0.23 %IA/g tissue
Tumor %IA/g tissue (mean ± SD) ([1]; 2 h post-injection): 2.53 ± 0.19 %IA/g tissue
tumor-to-brain tissue ratio ([2]; 1 h): 3.55 ± 0.80
tumor-to-brain tissue ratio ([2]; 2 h): 3.45 ± 0.81
tumor-to-muscle ratio ([2]; B16F1 mice group, 2 h): 6.64 ± 1.11
Adrenals %IA/g tissue (mean ± SD) [2, 3]: 1.10 ± 0.36 %IA/g tissue
Blood %IA/g tissue (mean ± SD) [2, 3]: 3.06 ± 0.52 %IA/g tissue
Bone %IA/g tissue (mean ± SD) [2, 3]: 3.78 ± 0.45 %IA/g tissue
Brain %IA/g tissue (mean ± SD) [2, 3]: 2.55 ± 0.61 %IA/g tissue
Heart %IA/g tissue (mean ± SD) [2, 3]: 2.82 ± 0.25 %IA/g tissue
Kidneys %IA/g tissue (mean ± SD) [2, 3]: 3.10 ± 0.28 %IA/g tissue
Liver %IA/g tissue (mean ± SD) [2, 3]: 3.25 ± 0.34 %IA/g tissue
Lung %IA/g tissue (mean ± SD) [2, 3]: 2.12 ± 0.17 %IA/g tissue
Muscles %IA/g tissue (mean ± SD) [2, 3]: 1.51 ± 0.21 %IA/g tissue
Pancreas %IA/g tissue (mean ± SD) [2, 3]: 2.48 ± 0.35 %IA/g tissue
Spleen %IA/g tissue (mean ± SD) [2, 3]: 2.24 ± 0.36 %IA/g tissue
Adrenals %IA/g tissue (mean ± SD) [2, 4]: 0.88 ± 0.06 %IA/g tissue
Blood %IA/g tissue (mean ± SD) [2, 4]: 2.51 ± 0.93 %IA/g tissue
Bone %IA/g tissue (mean ± SD) [2, 4]: 5.45 ± 0.98 %IA/g tissue
Brain %IA/g tissue (mean ± SD) [2, 4]: 2.25 ± 0.50 %IA/g tissue
Heart %IA/g tissue (mean ± SD) [2, 4]: 2.12 ± 0.58 %IA/g tissue
SMILES: CCN(CC)CCNC(=O)c1ccc(OCC[18F])cc1 [4-[^18F]FEBZA, N-(2-diethylaminoethyl) 4-[^18F]fluoroethoxybenzamide]
Sm. Intestine %IA/g tissue (mean ± SD) [2, 3]: 2.48 ± 0.35 %IA/g tissue and 2.49 ± 0.25 %IA/g tissue
